Counter-ions that a name gives are not always drawn. Like-named read-outs stand apart in the source and are kept apart here.
How the values were obtained:
[1] = Dissolution test, paddle method of the Korean Pharmacopoeia, 50 rpm, capsules with sinker, HPLC; assay type: physicochemical
Experimental: Dissolution tests were performed with examples 1˜6, comparative examples 1˜2, sibutramine free base itself and Reductil™ (Abbott Korea Limited) containing 10[…] of sibutramine hydrochloride monohydrate. To keep dissolution test condition similar, the contents of sibutramine in examples and comparative examples were evaluated with the below HPLC analysis condition and then the predetermined amount of examples, comparative examples and sibutramine free base itself were filled in one capsule to make capsules having 8.37[…] of sibutramine free base. These capsules were used in dissolution tests.
500[…] of pH 4.5 buffered solution [2.99 g of Sodium acetate trihydrate and 1.66[…] of acetic acid anhydrous were dissolved in 1 L of distilled water and then pH of the solution was adjusted to pH 4.5±0.05] and 500[…] of pH 6.8 buffered solution [118[…] of 0.2 mol/L NaOH solution was added to 250[…] of 0.2 mol/L […], and then distilled water was added to make the solution 1000[…]] were used as dissolution media. Paddle method of dissolution test of the Korean Pharmacopoeia was used and paddle was rotated at 50 rpm. Dissolution test was performed for 45 minutes and sinker was also used.
For HPLC analysis, mixture (350:640:10) of acetonitrile, water and tetrahydrofuran was used as mobile phase and ion pair reagent PIC B5 (Low UV) was added to the mobile phase to adjust retention time of peak, and then pH was adjusted to 3.0 with phosphoric acid. Wavelength for determination was 229[…] and flow rate was 1.5[…]/min and injection volume was 20[…].
Results were shown as percent (%) of sibutramine dissolved into dissolution media from test samples compared to the total amount of sibutramine contained in each sample.

[2] = Solubility and dissolution as stated in the background art; conditions: distilled water and pH 6.8 buffered solution
[3] = Hygroscopicity and storage stability of the drug substance as stated in the background art; conditions: during storage
[4] = background art; cited from earlier work
[5] = as said in U.S. Pat. No. 6,900,245; cited from earlier work

SMILES | percent of sibutramine dissolved into dissolution media ([1]; distilled water, 15 min) | percent of sibutramine dissolved into dissolution media ([1]; distilled water, 30 min) | percent of sibutramine dissolved into dissolution media ([1]; distilled water, 45 min) | percent of sibutramine dissolved into dissolution media ([1]; pH 4.5 buffered solution, 15 min) | percent of sibutramine dissolved into dissolution media ([1]; pH 4.5 buffered solution, 30 min) | percent of sibutramine dissolved into dissolution media ([1]; pH 4.5 buffered solution, 45 min) | dissolution in words ([1]; pH 6.8 buffered solution) | percent of sibutramine dissolved into dissolution media ([1]; pH 6.8 buffered solution, 15 min) | percent of sibutramine dissolved into dissolution media ([1]; pH 6.8 buffered solution, 30 min) | percent of sibutramine dissolved into dissolution media ([1]; pH 6.8 buffered solution, 45 min) | solubility in words [2] | storage stability in words [3] | hygroscopicity in words [4] | solubility in words [5]
CC(C)CC(N(C)C)C1(c2ccc(Cl)cc2)CCC1 (stereo not drawn) [Sibutramine free base, N,N-dimethyl-1-[1-(4-chlorophenyl)-cyclobutyl]-3-methylbutylamine] | 0% | 0% | 0% | 62% | 80% | 88% | did not practically dissolve | 0% | 0% | 0% | does not almost dissolve | may become sticky gel phase during storage |  | 
CC(C)CC(N(C)C)C1(c2ccc(Cl)cc2)CCC1.Cl (stereo not drawn) [sibutramine hydrochloride anhydrous] |  |  |  |  |  |  |  |  |  |  |  |  | highly hygroscopic | 
CC(C)CC(N(C)C)C1(c2ccc(Cl)cc2)CCC1 (stereo not drawn) [sibutramine hydrochloride monohydrate] |  |  |  |  |  |  |  |  |  |  |  |  | non-hygroscopic | insufficient

Source: US20080194695A1, “Pharmaceutical Composition Containing Sibutramine Free Base and Manufacturing Method Thereof” (priority 2005, published 2008)
